# Target: T1, mouse TRPM3a2 (mTRPM3) ion channel (Mus musculus, UniProt J9SQF3)
# T1 construct: expressed in transfected cells; host or cells: flip-in HEK293
# Assay: TRPM3 ion channel driven Ca2+ uptake, Fluo-4 AM assay (PS-stimulated, overexpressing flip-in HEK293 cells)
# Assay type: cell-based
# Conditions: PS (50 μM) stimulated Ca2+ influx, HEK293, cpds 300-399
# Method: In order to monitor the inhibition of the mouse TRPM3a2 (mTRPM3) ion channel by the compounds of the invention, a cellular system making use of an mTRPM3alpha2 or hTRPM3 overexpressing cell line (flip-in HEK293) was used. The TRPM3 channel was stimulated/opened with Pregnenolone sulfate (PS) (50 μM) which results in Ca^2+ influx.
# For mTRPM3, the intracellular Ca^2+ was measured with a Calcium responsive dye, Fluor-4 AM ester (Invitrogen). Cells were cultured until a confluence of 80-90%, washed with Versene (Invitrogen) and detached from the surface by a short incubation with 0.05% Trypsin (Invitrogen). The trypsination process was stopped by the addition of complete cell culture medium (DMEM, glutamax, 10% FCS, NEAA, Pen-Strep). Cells were collected and resuspended in Krebs buffer without Calcium at RT.
# Prior the cell seeding (±2000 cells/well into a black, 384 well plate (Greiner)) the diluted compound was added in the assay plate, together with the PS dissolved in Krebs buffer containing Calcium. […] Directly after cell addition the plates were read on an Envision fluorescence reader (Perkin Elmer) by an Excitation of 485 nm and emission at 535 nm.
# Channel inhibition was calculated compared to a non-PS stimulated control versus a condition stimulated with PS (50 μM) with vehicle. The ability of the compounds of the invention to inhibit this activity was determined as: Percentage inhibition=[1-((RFU determined for sample with test compound present—RFU determined for sample with positive control inhibitor) divided by (RFU determined in the presence of vehicle—RFU determined for sample with positive control inhibitor))]*100.
# T1 sequence (J9SQF3 1-1709 isoform J9SQF3-12): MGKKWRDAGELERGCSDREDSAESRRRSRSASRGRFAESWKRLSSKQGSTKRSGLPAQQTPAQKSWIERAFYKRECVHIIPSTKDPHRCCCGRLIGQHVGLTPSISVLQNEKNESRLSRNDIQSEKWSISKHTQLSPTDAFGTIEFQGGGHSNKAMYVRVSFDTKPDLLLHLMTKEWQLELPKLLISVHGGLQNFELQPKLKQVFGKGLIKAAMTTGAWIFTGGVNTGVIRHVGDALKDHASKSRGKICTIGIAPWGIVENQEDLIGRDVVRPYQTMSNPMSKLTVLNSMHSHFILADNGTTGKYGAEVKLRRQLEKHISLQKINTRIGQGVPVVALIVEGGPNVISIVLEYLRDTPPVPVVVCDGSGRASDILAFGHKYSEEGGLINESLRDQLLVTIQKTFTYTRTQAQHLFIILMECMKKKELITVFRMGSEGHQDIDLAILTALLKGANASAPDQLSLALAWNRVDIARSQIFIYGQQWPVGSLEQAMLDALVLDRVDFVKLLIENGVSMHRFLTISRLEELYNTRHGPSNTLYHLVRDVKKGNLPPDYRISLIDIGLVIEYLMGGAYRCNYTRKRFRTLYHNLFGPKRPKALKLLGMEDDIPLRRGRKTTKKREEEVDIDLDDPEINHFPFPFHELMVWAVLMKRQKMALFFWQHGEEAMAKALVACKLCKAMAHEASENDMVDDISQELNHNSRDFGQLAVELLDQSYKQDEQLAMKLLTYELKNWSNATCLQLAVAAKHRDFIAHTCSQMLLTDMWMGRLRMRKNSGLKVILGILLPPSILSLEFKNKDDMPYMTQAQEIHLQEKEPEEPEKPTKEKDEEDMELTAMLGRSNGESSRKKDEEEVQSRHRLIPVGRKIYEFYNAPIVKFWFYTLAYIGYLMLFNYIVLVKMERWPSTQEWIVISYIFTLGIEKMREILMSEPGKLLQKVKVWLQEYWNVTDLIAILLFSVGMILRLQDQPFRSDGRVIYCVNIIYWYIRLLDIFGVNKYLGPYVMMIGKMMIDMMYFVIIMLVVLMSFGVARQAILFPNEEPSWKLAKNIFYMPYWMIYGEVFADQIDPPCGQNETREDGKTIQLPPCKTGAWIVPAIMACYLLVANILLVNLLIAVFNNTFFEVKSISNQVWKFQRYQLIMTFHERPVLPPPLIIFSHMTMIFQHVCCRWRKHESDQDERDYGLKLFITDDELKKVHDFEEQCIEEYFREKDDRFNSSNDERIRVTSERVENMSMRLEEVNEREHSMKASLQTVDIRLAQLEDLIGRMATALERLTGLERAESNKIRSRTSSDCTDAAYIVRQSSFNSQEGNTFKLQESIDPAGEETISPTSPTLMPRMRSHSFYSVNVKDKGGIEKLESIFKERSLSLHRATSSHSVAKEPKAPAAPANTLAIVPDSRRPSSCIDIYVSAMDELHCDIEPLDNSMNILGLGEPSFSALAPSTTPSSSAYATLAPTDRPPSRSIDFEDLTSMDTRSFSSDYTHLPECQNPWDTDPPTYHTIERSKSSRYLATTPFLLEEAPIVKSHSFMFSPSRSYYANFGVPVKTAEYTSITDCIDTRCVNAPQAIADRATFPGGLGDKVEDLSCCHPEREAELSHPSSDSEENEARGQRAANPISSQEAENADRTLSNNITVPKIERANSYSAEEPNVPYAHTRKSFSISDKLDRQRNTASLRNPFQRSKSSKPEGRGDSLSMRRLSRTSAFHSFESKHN
row,Compound,IC50
1,"Cc1ncsc1COc1ccc2oc(C)c(C(=O)NC3CCN(CCO)C3=O)c2c1F (single isomer, unassigned) [326 - En 1]",≤ 1000 nM
2,"Cc1ncsc1COc1ccc2oc(C)c(C(=O)NC3CCN(CCO)C3=O)c2c1F (single isomer, unassigned) [326 - En 2]",1000 to 20000 nM
3,"Cc1oc2ccc(OCc3ccnn3CC(F)F)cc2c1C(=O)NC1(CO)CCNC1=O (single isomer, unassigned) [333 - En 1]",≤ 1000 nM
4,"CCOc1ncccc1COc1ccc2oc(C)c(C(=O)NC3CCN(CCO)C3=O)c2c1 (single isomer, unassigned) [348 - En 1]",≤ 1000 nM
5,"Cc1oc2ccc(OCc3c(F)cnn3C)cc2c1C(=O)NC1(CO)CCCNC1=O (single isomer, unassigned) [355 - En 1]",≤ 1000 nM
6,"Cc1oc2ccc(OCc3c(F)cnn3C)cc2c1C(=O)NC1(CO)CCNC1=O (single isomer, unassigned) [356 - En 1]",≤ 1000 nM
7,"Cc1ncsc1COc1cc2c(C(=O)NC3CCN(CCO)C3=O)c(C)oc2cc1F (single isomer, unassigned) [360 - En 1]",≤ 1000 nM
8,"Cc1ncsc1COc1cc(F)c2oc(C)c(C(=O)NC3CCN(CCO)C3=O)c2c1 (single isomer, unassigned) [365 - En 1]",≥ 20000 nM
9,"Cc1ncc(COc2ccc3oc(C)c(C(=O)NC4COCC4O)c3c2)s1 (single isomer, unassigned) [386 - En 1]",≤ 1000 nM
10,"Cc1ncc(COc2ccc3oc(C)c(C(=O)NC4COCC4O)c3c2)s1 (single isomer, unassigned) [386 - En 2]",1000 to 20000 nM
11,"Cc1oc2ccc(OCc3ccccn3)cc2c1C(=O)NC1COCC1O (single isomer, unassigned) [387 - En 1]",≤ 1000 nM
12,"Cc1ncc(COc2ccc3oc(C)c(C(=O)NC4COCC4O)c3c2)s1 (single isomer, unassigned) [388 - En 1]",≤ 1000 nM
13,"Cc1ncc(COc2ccc3oc(C)c(C(=O)NC4COCC4O)c3c2)s1 (single isomer, unassigned) [388 - En 2]",1000 to 20000 nM
14,"Cc1ncc(C(C)Oc2ccc3oc(C)c(C(=O)NC(CO)C(N)=O)c3c2)s1 (single isomer, unassigned) [395 - Dia 1]",≤ 1000 nM
15,"Cc1ncsc1COc1ccc2oc(C)c(C(=O)NC(C)C(=O)N(C)CCO)c2c1 (single isomer, unassigned) [396 - En 1]",≤ 1000 nM
16,"Cc1ncsc1COc1ccc2oc(C)c(C(=O)NC(C)C(=O)NCCO)c2c1 (single isomer, unassigned) [397 - En 1]",≤ 1000 nM

# Same assay, conditions: PS (50 μM) stimulated, cpd 001-199
row,IC50,Compound
1,1000 to 20000 nM,Cc1oc2ccc(OCc3cccnc3C(F)(F)F)cc2c1C(=O)O
2,≤ 1000 nM,"Cc1ncsc1COc1ccc2oc(C)c(C(=O)NC3CN(C)CCC3(F)F)c2c1 (single isomer, unassigned) [118 - En 1]"
3,≤ 1000 nM,"Cc1oc2ccc(OCc3cccnc3C(F)(F)F)cc2c1C(=O)NC1(CCO)CCOC1 (single isomer, unassigned) [126 - En 1]"
4,≤ 1000 nM,"Cc1oc2ccc(OCc3cccnc3C(F)(F)F)cc2c1C(=O)NC1CCN(C)CC1(F)F (single isomer, unassigned) [130 - En 1]"
5,≤ 1000 nM,"Cc1oc2ccc(OCc3cccnc3C(F)(F)F)cc2c1C(=O)NC1CN(C)CCC1(F)F (single isomer, unassigned) [131 - En 1]"
6,1000 to 20000 nM,"Cc1oc2ccc(OCc3cccnc3C(F)(F)F)cc2c1C(=O)NC1CN(CCO)CC1(F)F (single isomer, unassigned) [134 - En 1]"
7,≤ 1000 nM,"Cc1oc2ccc(OCc3cccnc3C(F)(F)F)cc2c1C(=O)NC1CN(CCO)CC1(F)F (single isomer, unassigned) [134 - En 2]"
8,≤ 1000 nM,"Cc1oc2ccc(OCc3cccnc3C(F)(F)F)cc2c1C(=O)NC1CN(C)CC(F)(F)C1 (single isomer, unassigned) [141 - En 1]"
9,≤ 1000 nM,"Cc1ncsc1COc1ccc2oc(C)c(C(=O)NC3CN(CC(F)(F)F)CC3(F)F)c2c1 (single isomer, unassigned) [155 - En 2, N-(4,4-difluoro-1-(2,2,2-trifluoroethyl)pyrrolidin-3-yl)-2-methyl-5-((4-methylthiazol-5-yl)me-thoxy)benzofuran-3-carboxamide]"
10,≤ 1000 nM,"Cc1oc2cc(Cl)c(OCc3cccnc3C(F)(F)F)cc2c1C(=O)NC1CCNCC1(F)F (single isomer, unassigned) [165 - En 1]"
11,1000 to 20000 nM,"Cc1oc2cc(Cl)c(OCc3cccnc3C(F)(F)F)cc2c1C(=O)NC1CCNCC1(F)F (single isomer, unassigned) [165 - En 2]"
12,1000 to 20000 nM,"Cc1oc2c(C)cc(OCc3cccnc3C(F)(F)F)cc2c1C(=O)NC1CCNCC1(F)F (single isomer, unassigned) [183 - En 1, N-(3,3-difluoropiperidin-4-yl)-2,7-dimethyl-5-((2-(trifluoromethyl)pyridin-3-yl)methoxy)benzofuran-3-carboxamide]"
13,≥ 20000 nM,"Cc1oc2c(C)cc(OCc3cccnc3C(F)(F)F)cc2c1C(=O)NC1CCNCC1(F)F (single isomer, unassigned) [183 - En 2, N-(3,3-difluoropiperidin-4-yl)-2,7-dimethyl-5-((2-(trifluoromethyl)pyridin-3-yl)methoxy)benzofuran-3-carboxamide]"
14,1000 to 20000 nM,"Cc1oc2c(Cl)cc(OCc3cccnc3C(F)(F)F)cc2c1C(=O)NC1CCNCC1(F)F (single isomer, unassigned) [184 - En 1]"
15,≥ 20000 nM,"Cc1oc2c(Cl)cc(OCc3cccnc3C(F)(F)F)cc2c1C(=O)NC1CCNCC1(F)F (single isomer, unassigned) [184 - En 2]"
16,1000 to 20000 nM,"Cc1oc2cc(C#N)c(OCc3cccnc3C(F)(F)F)cc2c1C(=O)NC1CCNCC1(F)F (single isomer, unassigned) [195 - En 2, 6-cyano-N-(3,3-difluoropiperidin-4-yl)-2-methyl-5-((2-(trifluoromethyl)pyridin-3-yl)methoxy)-benzofuran-3-carboxamide]"

# Further lines, the compound ahead of its results:
row,Compound,IC50
1,"Cc1ncsc1COc1ccc2oc(C)c(C(=O)NC3CCN(C)CC3(F)F)c2c1 (single isomer, unassigned) [110 - En 1]",≤ 1000 nM
2,"Cc1ncsc1COc1ccc2oc(C)c(C(=O)NC3CN(C)CC3(F)F)c2c1 (single isomer, unassigned) [123 - En 1]",≤ 1000 nM
3,"Cc1ncsc1COc1ccc2oc(C)c(C(=O)NC3CN(CCO)CC3(F)F)c2c1 (single isomer, unassigned) [151 - En 1]",≤ 1000 nM
4,"Cc1ncsc1COc1ccc2oc(C)c(C(=O)NC3CN(CC(F)(F)F)CC3(F)F)c2c1 (single isomer, unassigned) [155 - En 1, N-(4,4-difluoro-1-(2,2,2-trifluoroethyl)pyrrolidin-3-yl)-2-methyl-5-((4-methylthiazol-5-yl)me-thoxy)benzofuran-3-carboxamide]",≤ 1000 nM
5,"Cc1ncsc1COc1ccc2oc(C)c(C(=O)NC3CN(C)CC(F)(F)C3)c2c1 (single isomer, unassigned) [163 - En 1]",≤ 1000 nM
6,"COCCN1CCC(NC(=O)c2c(C)oc3ccc(OCc4scnc4C)cc23)C1=O (single isomer, unassigned) [169 - En 1]",≤ 1000 nM
7,"COCCN1CCC(NC(=O)c2c(C)oc3ccc(OCc4scnc4C)cc23)C1=O (single isomer, unassigned) [169 - En 2]",≤ 1000 nM
8,"Cc1ncsc1COc1ccc2oc(C)c(C(=O)NC3CC(=O)N(CCO)C3)c2c1 (single isomer, unassigned) [180 - En 1]",1000 to 20000 nM

# Same assay, conditions: PS (50 μM) stimulated, cpds. 400-499
row,Compound,IC50
1,"Cc1oc2ccc(OCc3nccn3C)cc2c1C(=O)NC1CCN(CCO)C1=O (single isomer, unassigned) [403 - En 1]",1000 to 20000 nM
2,"Cc1oc2ccc(OCc3nccn3C)cc2c1C(=O)NC1CCN(CCO)C1=O (single isomer, unassigned) [403 - En 2]",≥ 20000 nM
3,"Cc1oc2ccc(OCc3ccnn3C)cc2c1C(=O)NC1CCN(CCO)C1=O (single isomer, unassigned) [404 - En 1]",1000 to 20000 nM
4,"Cc1oc2ccc(OCc3ccccn3)cc2c1C(=O)NC1CCN(CCO)C1=O (single isomer, unassigned) [406 - En 1]",≤ 1000 nM
5,"Cc1oc2ccc(OCc3nccs3)cc2c1C(=O)NC1CCN(CCO)C1=O (single isomer, unassigned) [407 - En 1]",≤ 1000 nM
6,"Cc1oc2ccc(OCc3nccs3)cc2c1C(=O)NC1CCN(CCO)C1=O (single isomer, unassigned) [407 - En 2]",1000 to 20000 nM
7,"Cc1oc2ccc(OCc3cccnc3O)cc2c1C(=O)NC1CCN(CCO)C1=O (single isomer, unassigned) [408 - En 1]",≤ 1000 nM
8,"COc1ncccc1COc1ccc2oc(C)c(C(=O)NC3CCN(CCO)C3=O)c2c1 (single isomer, unassigned) [409 - En 1]",≤ 1000 nM
9,"Cc1ncsc1COc1ccc2oc(C)c(C(=O)NC3(C)CCN(CCO)C3=O)c2c1 (single isomer, unassigned) [410 - En 1]",≤ 1000 nM
10,"Cc1ncsc1COc1ccc2oc(C)c(C(=O)NC3(C)CCN(CCO)C3=O)c2c1 (single isomer, unassigned) [410 - En 2]",1000 to 20000 nM

# Source: patent publication US20240336602A1 (Katholieke Universiteit Leuven, priority 2020, published 2024)
